# Results published in patent US8877889B2, “Tumor cell-killing peptides” (Industry-Academic Cooperation Foundation, Chosun University, priority 2009, dated 2014).
# “Also recorded” adds a separate entry of the source. No end group written: not given here.
# Experiments:
# HeLa cells [1] = assay: Cell death assayed by cell counting kit-8, with or without caspase inhibitor pre-treatment; format: cell-based; conditions: 5 μM peptide for 5 hours (FIG. 2C)
# Experimental: (C) HeLa cells were pre-treated with zVAD-fmk (25 μM) or IDN-6556 (25 μM) 1 hour before MTD-peptide treatment. After treatment of 5 μM of R8, ΔR8-MTD, and R8:MTD peptides for 5 hours, cell death was assayed by cell counting kit-8 (Dojindo Molecular Technologies, Rockville, USA).
# HeLa cells [2] = assay: Cytochrome c release by immunofluorescence; format: cell-based; conditions: HeLa cells transfected; 2 days in the presence of zVAD-fmk
# Experimental: (B) Plasmids (control vector or Noxa WT fused to GFP) were transfected into HeLa cells. After 2 days in the presence of zVAD-fmk, cytochrome c was stained with anti-cytochrome c antibody. Arrows indicate the diffused cytochrome c staining (upper panel). The release of cytochrome c was analyzed by immunofluorescence in HeLa cells after treatment with MTD peptides (5 μM) (lower panel).
# HeLa cells [3] = assay: Cell death after transfection of Noxa constructs, counting EGFP-positive dead cells; format: cell-based
# Experimental: (D) HeLa cells were transfected with deletion mutants of Noxa. At 11 hrs, 24 hrs, and 36 hrs after transfection, cell death was determined by counting EGFP-positive dead cells with morphological changes using the fluorescent microscope.
# (B) HeLa cells were transfected with WT or with the indicated Noxa mutants. 20 hours after transfection cell death was determined by counting the EGFP-positive dead and survived cells under the fluorescent microscope.
# (A) HeLa cells were transfected with either WT Noxa, 4Lmt (L42A, L43A, L45A, L49A), or 5Lmt (L29A, L42A, L43A, L45A, L49A) constructs. At the indicated times after transfection, cell death was determined by counting the EGFP-positive dead cells with morphological changes under the fluorescent microscope.
# HeLa cells were transfected with EGFP-Noxa WT and 41-54 in combination with Bcl-2 expression plasmid or in the presence of zVAD-fmk (25 μM). 18 hours after transfection, cell death was determined by counting EGFP-positive dead cells with morphological changes using the fluorescent microscope. Data represent an average±SD of three experiments each with 200 total cells counted.
# The percentage of cell death was determined by counting EGFP-positive dead cells with morphology using the fluorescent microscope. Minimally, 300 cells in three separate fields were counted for each measurement.
# HeLa cells [4] = assay: Caspase activation, western blot of cell lysates; format: cell-based; conditions: 5 μM peptide
# Experimental: (E) After treatment with the MTD peptide, MTDmt4, or MTDmt5 (5 μM) in HeLa cells, cell lysates were prepared at indicated times. Equal amounts of proteins were subjected to the SDS-PAGE and blotted onto PVDF membrane. After blocked with 5% nonfat milk in TBST (10 mM Tris-HCl, pH 7.5, 100 mM NaCl and 0.1% Tween-20), the membrane was probed with anti-caspase-3 (SantaCruz Biotechnology, Inc., Santa Cruz, Calif., USA), anti-caspase-8 (Cell signaling technology, Beverly, Mass., USA), anti-caspase-9 (SantaCruz Biotechnology, Inc., Santa Cruz, Calif.), anti-XIAP (Upstate Biotechnology, Dundee, United Kingdom), or anti-Bid (home-made) antibodies. Anti-actin antibody (Chemicon International, Inc., Temecula, Calif., USA) was used as equal loading control.
# HeLa cells [5] = assay: Peptide-induced cell death, counting dead and survived cells under the light microscope; format: cell-based; conditions: peptides 10 μM, 20 μM, 30 μM, 10 minutes after treatment (FIG. 1B, 3A)
# Experimental: (B) HeLa cells were treated with DMSO or the indicated peptides in increasing doses (10 μM, 20 μM, and 30 μM). % of cell death was determined at 10 minutes after treatment by counting the dead cells and survived cells under the light microscope.
# (E) HeLa cells were transfected with substitution mutants of MTD peptide.
# HeLa cells were treated with DMSO or with the indicated peptides at increasing doses (10 μM, 20 μM, or 30 μM). % cell death was determined 10 minutes after treatment by counting the dead cells and survived cells (300 cells per sample) under the light microscope.
# (D) HeLa cells were treated with indicated amounts of MTD peptide for 1 hour, 2 hours, or 5 hours. % cell death was calculated by counting the dead cells and survived cells (200 to 500 cells per sample) under the light microscope. Data represent the means±SD of three independent experiments.
# HeLa cells [6] = assay: Measurement of intracellular calcium with Fluo-4-AM; format: cell-based; conditions: 3 μM peptide
# Experimental: (A-C) HeLa cells were loaded with 3 μM Fluo-4-AM for 30 minutes and then treated with 3 μM of indicated peptides (A: MTD, B: MTDmt3, C: MTDmt5). Fluorescence images and bright-field images were obtained with the laser scanning confocal microscope at 5-second intervals for 5 minutes. Relative fluorescence intensities (F/F0) at two region-of-interests (ROI 1 and 2) were measured at 5-second intervals for 5 minutes.
# (E-G) HeLa cells were pretreated in calcium free KRB media alone (E), in KRB media with 10 μM 2-APB and 20 μM Ryanodine (F), or in KRB media with freshly made 30 μM CsA (G) for 2 hours. HeLa cells were then loaded with 3 μM Fluo-4-AM for 30 minutes and treated with 3 μM of MTD peptide. Images were obtained with the laser scanning confocal microscope at 5-second intervals for 5 minutes. Relative fluorescence intensities (F/F0) at two region-of-interests (ROI 1 and 2) were measured at 5-second intervals for 5 minutes.
# For Ca^2+ measurements in the cytosol, HeLa cells were cultured in an Lab-Tek™ Chamber glass slide and loaded with Fluo-4-AM (Fluo-4-acetoxymethyl ester) at a final concentration of 3 μM for 30 minutes, followed by washing with PBS (Phosphate buffered saline) at pH 7.4 and the addition of fresh Ca^2+-free Krebs-ringer modified buffer (KRB: 125 mM NaCl, 5 mM KCl, 1 mM Na3PO4, 1 mM MgSO4, 5.5 mM glucose, and 20 mM HEPES, pH 7.4, at 37° C.) containing the indicated peptides. Time-lapse images were obtained at 488 nm excitation with the Argon laser scanning confocal microscope (Leica TCS SP5 Microsystems, Mannheim, Germany) at 10-second intervals for 5 minutes to visualize Fluo-4-AM.
# NCI-H460 cells = assay: Peptide-induced cell death in NCI-H460 cells; format: cell-based; conditions: 5 μM, 2 or 5 hours (FIG. 3C)
# Experimental: (C) NCI-H460 cells were treated with indicated peptides for 2 hours or 5 hours. % cell death was determined as described above.
# [7] = tested on: Isolated mouse liver mitochondria; assay: Isolated mitochondria treated with peptide, transmission electron microscopy; conditions: 10 μM peptide; 1 hour at 30° C.
# Experimental: (D) Isolated mouse liver mitochondria were treated with buffer (NT), MTD peptide (10 μM), or MTDmt5 peptide (10 μM), and then incubated for 1 hour at 30° C. Mitochondria were harvested by centrifugation (10,000×rpm) and then processed for transmission electron microscopy. Images (upper panel) were obtained with 7,000× magnification, and the relative mitochondrial sizes (lower panel) were calculated by measuring the diameters of about 40 individual mitochondria.
# Jurkat cells or isolated mitochondria treated with MTD peptides were harvested by centrifugation and fixed with 2.5% glutaraldehyde for 2 hours followed by washing with 0.2 M sodium cacodylate buffer (pH 7.2) three times for 10-20 minutes. Fixation step was repeated overnight and washed with 0.2 M sodium cacodylate buffer three times. Samples were dehydrated with following sequential solutions 60% ethanol, 70% ethanol, 80% ethanol, 90% ethanol, 95% ethanol, and 100% ethanol twice for 20 minutes at 4° C., and then infiltrated by propylene oxide three times for 20 minutes. Samples were embedded with the mixture of propylene oxide and epon for 6 hours. Electron microscopic images were obtained using the Hitachi H-7600 electron microscope (80 kV, Hitachi, Tokyo, Japan). Mitochondria were isolated from mouse liver as previously described (1).
# [8] = Toxicity in peptide-injected mice (histology of skin, liver, kidney; body weight); format: in vivo, Balb/c mice; conditions: for apparent toxic effects in mice: i.v. injected mice; for damage in liver and kidney tissues, microscopic analysis: mice injected seven times every two days; for body weight loss: peptide-injected mice; for cell death in dermis and epidermis regions: peptide-injected tumor-bearing mice, hematoxylin and eosin
# Text: (D) Images (400× magnification) of liver and kidney from normal mice or mice treated with, PBS, TU2:MTD or TU3:MTD peptides seven times every two days were obtained after stained with hematoxylin and eosin.
# (D) Images (100× magnification) of dermis and epidermis region of normal skin or adjacent to tumor treated with PBS, TU2:MTD or TU3:MTD peptides were obtained after stained with hematoxylin and eosin.
# (§1) We followed the university's institutional guidelines and regulations for animal experiments. Tumors were established in Balb/c mice by subcutaneous injection of CT-26 cells (1.5×10^5 cells) into the mouse as described (14). Tumor volume was calculated as length×width^2×0.5. Tumor cells were grown for 7 to 8 days, and TU2:MTD peptide (385 μg/mouse), TU3:MTD peptide (230 μg/mouse), or PBS was intravenously injected through the tail vein every two days until the mice were sacrificed.
# CT-26 cells = assay: Syngeneic animal tumor model; format: in vivo; conditions: Balb/c mice with CT26 tumors; for tumor size (tumor volume) versus PBS: i.v. tail vein every two days, TU2:MTD 385 μg/mouse, TU3:MTD 230 μg/mouse; for cell death of tumor cells, histochemical examination of tumors: i.v., hematoxylin and eosin
# Experimental: (§2) (A) CT26 cells were injected subcutaneously into the Balb/c mice. Tumor cells were grown for 7 days, and TU2:MTD peptide (385 μg/mouse) or PBS was intravenously injected through the tail vein (n=10 animals/group) every two days from day 7 to day 19. Tumor volume was calculated as the longest diameter×width2×0.5.
# (B) TU3:MTD peptide (230 μg/mouse) or PBS were intravenously injected to the Balb/c mice bearing tumor through the tail vein (n=5 animals/group) every two days from day 8 to day 20. Tumor volume was measured as described above.
# (C) Tumors were obtained from the mice treated with PBS, TU2:MTD or TU3:MTD upon sacrificing the mice, and were stained with hematoxylin and eosin. Images (400× magnification) at tumor regions were obtained (left), and the boxed region were enlarged (right).
# as §2, with “(B)” for “(A)”, “weights were measured after mice were sacrificed.” for “volume was calculated as the longest diameter×width2×0.5.”
# (C) TU3:MTD peptide (230 μg/mouse) or PBS were intravenously injected to the Balb/c mice bearing tumor through the tail vein (n=5 animals/group) every two days from day 8 to day 20. Tumor weights were measured as described above.
# as §1
# [9] = tested on: CT26 mouse colon carcinoma cells; assay: Tumor cell killing activity, bright field images; format: cell-based; conditions: 10 μM peptide (FIG. 9A)
# Experimental: (A) CT26 cells were treated with 10 μM MTD, TU1:MTD, TU2:MTD, or TU3:MTD peptides, and bright field images for indicated peptides were obtained at indicated time points. Representative images of at least 3 individual experiments were presented.
Substance,apparent toxic effects in mice [8],"damage in liver and kidney tissues, microscopic analysis [8]",body weight loss [8],cell death in dermis and epidermis regions [8],tumor size (tumor volume) versus PBS (CT-26 cells),"cell death of tumor cells, histochemical examination of tumors (CT-26 cells)",tumor cell killing activity [9],other results
KLLNLISKLF [ΔR8:MTD],,,,,,,,cell death (HeLa cells [1]): could not cause cell death; also recorded: no cell death-inducing activity
"WT Noxa: wild type Noxa (1-54) expressed from pEGFP-Noxa by transfection (MPGKKARKNAQPSPARAPAELEVECATQLRRFGDKLNFRQKLLNLISKLFCSGT; cysteine pairing not given here; also: EGFP fusion (pEGFP-Noxa); UniProt Q13794 1-54, looked up)",,,,,,,,"cytochrome c release from mitochondria (HeLa cells [2]): able to release the cytochrome c from mitochondria; cell death (HeLa cells [3]; HeLa cells transfected (FIG. 8A)): more than 60%; cell death after over-expression (HeLa cells [3]; HeLa cells, within 11 hrs after transfection (FIG. 1D)): induced cell death within 11 hrs; inhibition of transfection-induced cell death by zVAD-fmk (HeLa cells [3]; HeLa cells, zVAD-fmk 25 μM, 18 hours after transfection (FIG. 10)): significantly inhibited by zVAD-fmk"
RRRRRRRRGRQKLLNLISKAA (PTD-MTDmt5 fusion peptide derived from Homo sapiens),,,,,,,,caspase activation (HeLa cells [4]): not activated; cell death-inducing activity (% of cell death) (HeLa cells [5]): no killing activity; also recorded: completely lost their cell death-inducing activities; also recorded: no cell death; cytosolic calcium level change (HeLa cells [6]): did not induce changes in the cytosolic calcium level; susceptibility of cells to peptide (NCI-H460 cells): not; morphological changes or mitochondrial size changes of isolated mitochondria [7]: did not show any morphological changes or mitochondrial size changes
CNGRCVSGCAGRCGGKLLNLISKLF (TU2-MTD fusion peptide derived from Homo sapiens) [TU2:MTD],do not show apparent toxic effects,no damages in liver and kidney tissues,no body weight loss,no or little cell death,significantly smaller tumors,massive cell death of tumor cells,comparable killing activities to MTD peptide,
CGNKRTRGCGGKLLNLISKLF (TU3-MTD fusion peptide derived from Homo sapiens) [TU3:MTD],do not show apparent toxic effects,no damages in liver and kidney tissues,no body weight loss,no or little cell death,significantly smaller tumors,massive cell death of tumor cells,comparable killing activities to MTD peptide,
